Laboratory results published in US20110166191A1, “3-(2-amino-ethyl)-5-(3-cyclohexyl-propylidene)-thiazolidine-2,4-dione and its derivatives as multiple signaling pathway inhibitors and for the treatment of cancer” (priority 2010, published 2011).

Assay: Toxicity studies in mice
Assay type: in vivo
Conditions: B6C3F1 mice, orally 30 mg/kg, 50 mg/kg and 80 mg/kg, 21 days
Procedure: Female B6C3F1 mice (12/group) were given example 4 orally at 30 mg/kg, 50 mg/kg and 80 mg/kg dosage or example 820 mg/kg orally for 21 days.

NCCN1C(=O)S/C(=C\CCC2CCCCC2)C1=O [Example 4, 3-(2-aminoethyl)-5-(3-cyclohexylpropylidene)thiazolidine-2,4-dione]
effects on general health and body weight: no effects on general health and body weight were observed
